Holding throughout (experiment): Transporter inhibition in overexpressing cell lines
Common to all, as to type: in vitro ADME

One series deals with OATP1B1 (Homo sapiens, UniProt Q9Y6L6). Particulars: SLC family, n = 2, read-out: Drug transport inhibition OATP1B1. How it is done:
(§1) Microsomal stability was evaluated using human liver microsomes at 10 µM (Table 3). […] Since cytochrome P450 (CYP) enzymes—especially families 1 to 3—play major roles in drug metabolism, CYP inhibition was tested against the human isoforms CYP1A, 2B6, 2C8, 2C9, 2C19, 2D6, and 3A, as recommended by FDA and EMA guidelines. […] Membrane transport proteins, including the ATP-binding cassette (ABC) and solute carrier (SLC) families, affect drug pharmacokinetics and potential drug–drug interactions. The inhibitory effects of compounds 2 and 6 were assessed against five ABC transporters (P-gp, BCRP, MRP1, MRP2, and MRP3) and seven SLC transporters (OAT1, OAT3, OATP1B1, OCT1, OCT2, ASBT, and NTCP).
(§2) Standardized in vitro ADME experiments were performed by Eurofins Cerep (Poitiers, France). Solubility assays were performed in PBS at pH 7.4, but also in simulated gastric fluid (SGF) and intestinal fluid (SIF), through the classical shake-flask method described by Lipinski et al., using HPLC-UV/VIS technology. The results were expressed in µM. The compound was classically evaluated at 10 µM for all of the ADME analyses. Bidirectional permeability (apical A to basolateral B pH 6.5/7.4, and basolateral B to apical A pH 7.4/6.5) was assessed in the epithelial colorectal adenocarcinoma cell line (Caco-2 cell line). The results were expressed as ×10^−6 cm/s (Papp) and as % recovery. The efflux ratio, i.e., Papp (B→A)/Papp(A→B), was calculated. Plasma protein binding was analyzed by HPLC-MS/MS after 4 h of incubation at 37 °C, as described by Banker et al.. Concentration was evaluated by LC/MS-MS. CYP inhibition was performed in human liver microsomes as described in [28]. Analysis of the respective metabolites was performed by HPLC-MS/MS. Transporter inhibition analysis was also performed in overexpressing cell lines. Respective metabolites for each specific transporter substrate were analyzed by fluorometry or scintillation counting, and % inhibition of control values were calculated. P-glycoprotein transporter substrate assessment was performed by bidirectional permeability analysis (apical A to basolateral B pH 7.4/7.4, and basolateral B to apical A pH 7.4/7.4) in the Caco-2 cell line with and without verapamil, as described in [26]. The results were expressed as ×10^−6 cm/s (Papp) and as % recovery. The efflux ratio was calculated as Papp(B→A)/Papp(A→B). CYP450 induction was assessed in human hepatocytes by measuring the mRNA levels of seven CYP isoforms via qPCR, as described in [40]. The compound was tested at 1, 10, and 100 μM, and fold-induction values were compared with predefined cut-off thresholds for each isoform and hepatocyte lot.

The next series deals with BCRP (Homo sapiens, UniProt Q9UNQ0). Particulars: ABC family, n = 2, read-out: Drug transport inhibition BCRP. The method, then:
as §1, §2

In a further series the target is OCT2 (Homo sapiens, UniProt O15244). Particulars: SLC family, n = 2, read-out: Drug transport inhibition OCT2. How it is done:
as §1, §2

In a further series the target is NTCP (Homo sapiens, UniProt Q14973). Particulars: SLC family, n = 2, read-out: Drug transport inhibition NTCP. How it is done:
as §1, §2

In a further series the target is OCT1 (Homo sapiens, UniProt O15245). Particulars: SLC family, n = 2, read-out: Drug transport inhibition OCT1. How it is done: as §1, §2
Sequence of OCT1 (O15245 whole entry): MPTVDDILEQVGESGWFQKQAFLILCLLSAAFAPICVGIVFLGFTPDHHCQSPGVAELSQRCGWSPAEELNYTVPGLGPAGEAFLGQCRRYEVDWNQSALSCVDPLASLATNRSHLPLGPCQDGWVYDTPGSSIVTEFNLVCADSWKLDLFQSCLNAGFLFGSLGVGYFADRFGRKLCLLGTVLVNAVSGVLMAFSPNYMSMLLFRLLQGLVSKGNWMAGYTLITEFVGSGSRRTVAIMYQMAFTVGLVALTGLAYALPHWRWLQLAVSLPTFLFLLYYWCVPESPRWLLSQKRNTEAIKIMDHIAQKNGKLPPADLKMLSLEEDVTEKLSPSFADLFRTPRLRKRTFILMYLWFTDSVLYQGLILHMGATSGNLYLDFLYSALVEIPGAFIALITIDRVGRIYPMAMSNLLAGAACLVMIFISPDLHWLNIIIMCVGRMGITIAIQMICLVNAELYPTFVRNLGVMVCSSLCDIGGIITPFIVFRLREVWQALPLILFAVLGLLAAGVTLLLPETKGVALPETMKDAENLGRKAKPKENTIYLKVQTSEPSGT
A further series addresses ABST (Homo sapiens, UniProt Q12908). Particulars: SLC family, n = 2, read-out: Drug transport inhibition ABST. How it is done: as §1, §2
For another series, the target named is MRP1 (Homo sapiens, UniProt P33527). The note with it: ABC family, n = 2, read-out: Drug transport inhibition MRP1. The method, then: as §1, §2
Sequence of MRP1 (P33527 whole entry): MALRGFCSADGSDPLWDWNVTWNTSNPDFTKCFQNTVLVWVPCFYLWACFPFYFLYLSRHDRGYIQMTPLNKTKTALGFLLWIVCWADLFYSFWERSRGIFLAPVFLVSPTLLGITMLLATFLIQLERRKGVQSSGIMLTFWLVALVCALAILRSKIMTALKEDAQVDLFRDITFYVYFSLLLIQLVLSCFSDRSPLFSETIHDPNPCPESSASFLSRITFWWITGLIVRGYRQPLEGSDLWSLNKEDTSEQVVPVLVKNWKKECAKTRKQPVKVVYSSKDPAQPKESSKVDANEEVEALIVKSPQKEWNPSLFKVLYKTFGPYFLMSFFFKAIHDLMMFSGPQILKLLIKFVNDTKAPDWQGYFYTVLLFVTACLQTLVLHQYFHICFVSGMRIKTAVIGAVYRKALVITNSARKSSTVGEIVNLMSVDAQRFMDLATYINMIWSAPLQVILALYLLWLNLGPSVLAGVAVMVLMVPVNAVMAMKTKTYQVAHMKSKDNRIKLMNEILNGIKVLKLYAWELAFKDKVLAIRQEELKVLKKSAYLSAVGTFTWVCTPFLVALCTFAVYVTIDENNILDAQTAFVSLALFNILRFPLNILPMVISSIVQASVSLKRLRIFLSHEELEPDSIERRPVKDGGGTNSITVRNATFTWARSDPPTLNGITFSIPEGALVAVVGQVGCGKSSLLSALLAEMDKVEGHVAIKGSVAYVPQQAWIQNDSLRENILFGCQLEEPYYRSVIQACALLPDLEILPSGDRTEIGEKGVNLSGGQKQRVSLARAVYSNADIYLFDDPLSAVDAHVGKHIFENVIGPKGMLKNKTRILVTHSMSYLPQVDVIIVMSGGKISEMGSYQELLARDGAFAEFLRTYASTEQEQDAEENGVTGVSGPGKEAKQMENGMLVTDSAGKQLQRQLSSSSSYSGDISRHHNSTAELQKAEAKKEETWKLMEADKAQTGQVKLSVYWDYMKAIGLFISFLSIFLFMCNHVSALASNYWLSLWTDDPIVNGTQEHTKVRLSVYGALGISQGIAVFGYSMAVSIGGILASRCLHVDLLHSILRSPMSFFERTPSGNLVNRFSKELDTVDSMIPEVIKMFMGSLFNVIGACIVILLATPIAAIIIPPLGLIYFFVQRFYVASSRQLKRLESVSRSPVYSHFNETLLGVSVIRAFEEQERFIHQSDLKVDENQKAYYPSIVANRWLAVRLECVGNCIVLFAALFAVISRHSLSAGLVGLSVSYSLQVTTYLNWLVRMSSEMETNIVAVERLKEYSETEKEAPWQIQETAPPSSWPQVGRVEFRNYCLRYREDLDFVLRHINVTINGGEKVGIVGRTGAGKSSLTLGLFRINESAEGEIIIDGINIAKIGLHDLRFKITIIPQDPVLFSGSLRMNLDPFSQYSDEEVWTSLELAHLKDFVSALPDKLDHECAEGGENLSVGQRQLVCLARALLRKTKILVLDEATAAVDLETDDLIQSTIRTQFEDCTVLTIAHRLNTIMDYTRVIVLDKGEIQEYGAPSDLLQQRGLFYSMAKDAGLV
The target of another series is P-gp (Homo sapiens, UniProt P08183). Particulars: ABC family, n = 2, read-out: Drug transport inhibition P-gp. How it is done:
as §1, §2

The target in another series is OAT1 (Homo sapiens, UniProt Q4U2R8). Particulars: SLC family, n = 2, read-out: Drug transport inhibition OAT1. The method, then: as §1, §2
Sequence of OAT1 (Q4U2R8 whole entry): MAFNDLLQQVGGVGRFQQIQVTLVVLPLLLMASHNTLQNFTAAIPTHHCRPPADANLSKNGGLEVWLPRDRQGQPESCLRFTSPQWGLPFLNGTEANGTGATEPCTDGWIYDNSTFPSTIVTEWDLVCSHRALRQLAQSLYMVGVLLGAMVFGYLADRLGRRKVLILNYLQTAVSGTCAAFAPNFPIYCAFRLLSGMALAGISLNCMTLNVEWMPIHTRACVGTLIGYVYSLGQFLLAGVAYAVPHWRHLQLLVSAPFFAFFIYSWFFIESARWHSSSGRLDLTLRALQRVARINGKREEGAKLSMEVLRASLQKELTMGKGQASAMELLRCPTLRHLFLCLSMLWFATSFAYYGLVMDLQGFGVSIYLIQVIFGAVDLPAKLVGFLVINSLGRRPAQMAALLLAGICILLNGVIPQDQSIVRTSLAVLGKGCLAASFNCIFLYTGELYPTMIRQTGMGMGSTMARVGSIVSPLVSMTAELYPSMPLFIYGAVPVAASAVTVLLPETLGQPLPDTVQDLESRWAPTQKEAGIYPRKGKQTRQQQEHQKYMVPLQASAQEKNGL
A further series deals with MRP3 (Homo sapiens, UniProt O15438). Particulars: ABC family, n = 2, read-out: Drug transport inhibition MRP3. The method, then: as §1, §2
In another series the target is MRP2 (Homo sapiens, UniProt Q92887). Particulars: ABC family, n = 2, read-out: Drug transport inhibition MRP2. How it is done:
as §1, §2

In a further series the target is OAT3 (Homo sapiens, UniProt Q8TCC7). The note with it: SLC family, n = 2, read-out: Drug transport inhibition OAT3. The method, then:
as §1, §2

Sequence of BCRP (Q9UNQ0 whole entry): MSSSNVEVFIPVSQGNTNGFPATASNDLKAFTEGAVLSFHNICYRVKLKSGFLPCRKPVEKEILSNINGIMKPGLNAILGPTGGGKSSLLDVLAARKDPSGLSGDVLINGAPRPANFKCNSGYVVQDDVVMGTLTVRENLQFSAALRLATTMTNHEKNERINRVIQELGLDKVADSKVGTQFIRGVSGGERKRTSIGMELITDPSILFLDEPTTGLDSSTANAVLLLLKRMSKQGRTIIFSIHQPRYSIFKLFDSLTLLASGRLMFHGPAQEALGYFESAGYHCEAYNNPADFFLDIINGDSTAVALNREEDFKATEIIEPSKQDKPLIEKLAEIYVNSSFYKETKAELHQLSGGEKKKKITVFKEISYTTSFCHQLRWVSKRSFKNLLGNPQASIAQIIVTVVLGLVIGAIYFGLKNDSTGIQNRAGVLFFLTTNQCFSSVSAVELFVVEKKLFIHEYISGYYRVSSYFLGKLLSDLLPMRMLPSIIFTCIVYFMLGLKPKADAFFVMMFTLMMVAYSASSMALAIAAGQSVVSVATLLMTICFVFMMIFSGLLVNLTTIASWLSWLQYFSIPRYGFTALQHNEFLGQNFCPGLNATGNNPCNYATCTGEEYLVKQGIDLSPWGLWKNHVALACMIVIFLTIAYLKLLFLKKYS
Sequence of OATP1B1 (Q9Y6L6 whole entry, canonical isoform): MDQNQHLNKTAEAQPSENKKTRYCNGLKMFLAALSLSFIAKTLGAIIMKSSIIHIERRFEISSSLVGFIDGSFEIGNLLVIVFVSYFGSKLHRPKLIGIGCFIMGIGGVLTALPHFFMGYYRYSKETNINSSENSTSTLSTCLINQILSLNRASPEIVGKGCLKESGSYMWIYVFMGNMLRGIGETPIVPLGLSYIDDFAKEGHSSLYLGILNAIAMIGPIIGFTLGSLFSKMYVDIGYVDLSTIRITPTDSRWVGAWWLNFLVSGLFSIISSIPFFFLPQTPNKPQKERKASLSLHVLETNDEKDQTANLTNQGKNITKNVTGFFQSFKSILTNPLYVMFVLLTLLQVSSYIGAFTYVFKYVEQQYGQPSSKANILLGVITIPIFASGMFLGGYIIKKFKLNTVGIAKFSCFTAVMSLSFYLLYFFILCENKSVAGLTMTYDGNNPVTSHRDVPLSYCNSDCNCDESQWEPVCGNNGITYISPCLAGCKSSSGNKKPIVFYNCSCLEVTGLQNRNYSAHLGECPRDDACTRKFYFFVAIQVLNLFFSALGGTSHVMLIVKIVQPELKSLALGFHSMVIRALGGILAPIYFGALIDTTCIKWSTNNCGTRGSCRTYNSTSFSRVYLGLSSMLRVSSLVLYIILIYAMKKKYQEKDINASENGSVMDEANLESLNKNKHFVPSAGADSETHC
Sequence of OCT2 (O15244 whole entry): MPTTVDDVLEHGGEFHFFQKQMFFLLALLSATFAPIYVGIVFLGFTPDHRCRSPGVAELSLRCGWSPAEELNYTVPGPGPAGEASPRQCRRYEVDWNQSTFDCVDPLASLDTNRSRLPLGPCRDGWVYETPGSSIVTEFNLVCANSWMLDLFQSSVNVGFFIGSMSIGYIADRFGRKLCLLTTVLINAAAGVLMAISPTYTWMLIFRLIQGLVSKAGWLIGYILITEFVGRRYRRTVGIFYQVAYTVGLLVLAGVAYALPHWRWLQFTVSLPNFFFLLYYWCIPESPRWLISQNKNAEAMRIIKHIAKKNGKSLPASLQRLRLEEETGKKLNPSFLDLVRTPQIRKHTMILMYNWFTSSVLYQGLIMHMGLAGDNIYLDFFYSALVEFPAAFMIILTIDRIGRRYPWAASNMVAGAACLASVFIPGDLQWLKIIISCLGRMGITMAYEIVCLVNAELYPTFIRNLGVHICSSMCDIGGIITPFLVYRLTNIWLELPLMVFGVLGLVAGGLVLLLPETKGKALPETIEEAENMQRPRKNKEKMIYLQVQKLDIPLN
Sequence of NTCP (Q14973 whole entry): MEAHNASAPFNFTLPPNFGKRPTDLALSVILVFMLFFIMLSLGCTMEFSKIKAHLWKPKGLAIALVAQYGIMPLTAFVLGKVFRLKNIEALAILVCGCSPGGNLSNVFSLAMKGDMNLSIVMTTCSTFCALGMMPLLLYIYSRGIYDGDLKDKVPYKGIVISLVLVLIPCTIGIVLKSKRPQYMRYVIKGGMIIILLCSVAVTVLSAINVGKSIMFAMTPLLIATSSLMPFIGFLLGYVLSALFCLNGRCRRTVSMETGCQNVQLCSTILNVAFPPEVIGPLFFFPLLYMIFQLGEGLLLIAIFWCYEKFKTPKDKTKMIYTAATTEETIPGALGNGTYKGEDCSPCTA

Regarding `CN(CCC(=O)NCc1cccc(Cl)c1)Cc1ccccc1` [Compound 2, 3-(Benzylmethylamino)-N-(3-chlorobenzyl)propanamide], the inhibition at 10 µM was 3.9% on OATP1B1; -9% on BCRP; 54.1% at OCT2; 8.7% on NTCP; 19.9% at OCT1; 21.8% on ABST. Besides, the inhibition at 10 µM on MRP1 was -0.3%; on P-gp it was 4.7%; on OAT1, -23.1%; on MRP3, 0.7%; at MRP2, 5.6%; at OAT3, 33.3%.

For `CN(CCC(=O)NCc1ccc(C#N)cc1)Cc1ccccc1` [Compound 6, 3-(Benzylmethylamino)-N-(4-cyanobenzyl)propanamide], the inhibition at 10 µM on OATP1B1 is 1.3%; at BCRP, -5.8%; on OCT2 it was 59.3%; at NTCP, -12.5%; at OCT1, 2.4%; on ABST it was -8.9%. For the same molecule, the inhibition at 10 µM at MRP1 is -1.1%; at P-gp, 4.7%; on OAT1, -25.8%; at MRP3 it was 0.4%; on MRP2, 3.3%; on OAT3, 27.8%.

As a reminder, the inhibition is the drop in the measured response relative to a control, in per cent.

The record behind these values is paper PMC12430443, “Discovery of Novel Benzamide-Based Sigma-1 Receptor Agonists with Enhanced Selectivity and Safety” (Molecules, 2025).
